From the NIST ThermoML archive (doi:10.1021/je020195l)

Columns and labels:
[1] = activity coefficient (dimensionless); of the first substance listed, at infinite dilution; xn = mol fraction of the nth substance listed; settings: 101 kPa, Liquid, x1 = 0
[2] = excess molar enthalpy (molar enthalpy of mixing); xn = mol fraction of the nth substance listed; settings: Liquid, Flow calorimetry

C1CCCCC1 [cyclohexane] + CCOC(C)OCC
[1]
Settings | activity coefficient
293.08 K | 1.76
303.18 K | 1.72
313.12 K | 1.67
323.14 K | 1.64

CCOC(C)OCC [1,1-diethoxyethane] + C1CCCCC1
[2], 323.15 K, 1308 kPa
Settings | excess molar enthalpy [kcal/mol]
x2 = 0.0648 | 0.0271
x2 = 0.1277 | 0.0506
x2 = 0.1887 | 0.0712
x2 = 0.2478 | 0.0882
x2 = 0.3052 | 0.103
x2 = 0.3609 | 0.114
x2 = 0.415 | 0.123
x2 = 0.4676 | 0.129
x2 = 0.5188 | 0.132
x2 = 0.5685 | 0.133
x2 = 0.6169 | 0.13
x2 = 0.664 | 0.126
x2 = 0.7099 | 0.12
x2 = 0.7546 | 0.111
x2 = 0.7981 | 0.0986
x2 = 0.8405 | 0.0849
x2 = 0.8819 | 0.0681
x2 = 0.9222 | 0.0481
x2 = 0.9616 | 0.0261

CCC(C)(OC)OC [2,2-dimethoxybutane] + c1ccccc1
[2], 303.15 K, 1342 kPa
Settings | excess molar enthalpy [kcal/mol]
x2 = 0.0747 | 0.00416
x2 = 0.1456 | 0.00676
x2 = 0.213 | 0.00906
x2 = 0.2772 | 0.0109
x2 = 0.3383 | 0.0128
x2 = 0.3966 | 0.0141
x2 = 0.4523 | 0.0151
x2 = 0.5056 | 0.0159
x2 = 0.5565 | 0.0165
x2 = 0.6053 | 0.0167
x2 = 0.6521 | 0.0165
x2 = 0.697 | 0.0162
x2 = 0.7402 | 0.0155
x2 = 0.7816 | 0.0145
x2 = 0.8215 | 0.0131
x2 = 0.8599 | 0.0112
x2 = 0.8968 | 0.00927
x2 = 0.9325 | 0.00651

c1ccccc1 [benzene] + CCOC(C)OCC
[1]
Settings | activity coefficient
293.21 K | 0.64
303.16 K | 0.58
313.11 K | 0.56
323.13 K | 0.62

CCC(C)(OC)OC [2,2-dimethoxybutane] + C1CCCCC1
[2], 303.15 K, 1204 kPa
Settings | excess molar enthalpy [kcal/mol]
x2 = 0.0623 | 0.0257
x2 = 0.1229 | 0.0471
x2 = 0.1821 | 0.0671
x2 = 0.2397 | 0.0844
x2 = 0.296 | 0.0985
x2 = 0.3509 | 0.11
x2 = 0.4045 | 0.119
x2 = 0.4568 | 0.125
x2 = 0.5079 | 0.128
x2 = 0.5578 | 0.129
x2 = 0.6066 | 0.128
x2 = 0.6542 | 0.123
x2 = 0.7008 | 0.116
x2 = 0.7464 | 0.107
x2 = 0.791 | 0.0956
x2 = 0.8346 | 0.0821
x2 = 0.8773 | 0.0657
x2 = 0.919 | 0.0468
x2 = 0.9599 | 0.0259

CCOC(C)OCC [1,1-diethoxyethane] + c1ccccc1
[2], 323.15 K, 1308 kPa
Settings | excess molar enthalpy [kcal/mol]
x2 = 0.0778 | -0.00197
x2 = 0.1511 | -0.00364
x2 = 0.2204 | -0.00483
x2 = 0.286 | -0.0057
x2 = 0.3481 | -0.00617
x2 = 0.4071 | -0.0064
x2 = 0.4631 | -0.0064
x2 = 0.5165 | -0.00619
x2 = 0.5672 | -0.00577
x2 = 0.6157 | -0.00527
x2 = 0.6619 | -0.0045
x2 = 0.7061 | -0.00365
x2 = 0.7484 | -0.00277
x2 = 0.7889 | -0.00181
x2 = 0.8278 | -0.000703
x2 = 0.865 | 7.17e-06
x2 = 0.9008 | 0.000676
x2 = 0.9351 | 0.00116
x2 = 0.9682 | 0.00114
